“Also recorded” adds a separate entry of the source.
Tests used:
[1] = Microsomal stability assay, mouse liver microsomes; assay type: in vitro ADME; settings: for stability in Mouse liver microsomes: Table 2
How it was run: (§1)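 Test compound at 10 μM was preincubated 5 min at 37 °C in phosphate buffer pH 7.4 with NADPH regenerating system, then started with human or mouse liver microsomes at 0.5 mg/mL protein. Samples were taken at 0–60 min and quenched in cold acetonitrile with internal standard. Slope k came from ln peak-area ratio versus time, three repeats in duplicate.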

[2] = molecular target: T1, α6β3γ2 receptor (Rattus norvegicus, UniProt P30191+P63079); test: Electrophysiology in Xenopus oocytes, modulation of GABA currents; assay type: cell-based; settings: for Emax: EC3-6 GABA currents, read-out: maximum efficacy, enhancement of the reference current; for selectivity for α6β3γ2 over other αxβ3γ2 receptors: modulation of GABA EC3 currents
T1 construct: expressed in transfected cells; host or cells: Xenopus laevis oocytes injected with subunit mRNA (3:1:5)
Description: Mature female Xenopus laevis (Nasco, Fort Atkinson, Wis., USA) were anaesthetized in a bath of ice-cold 0.17% Tricain (Ethyl-m-aminobenzoat, Sigma-Aldrich, St. Louis, Mo., USA) before decapitation and transfer of the frog's ovary to ND96 medium (96 mM NaCl, 2 mM KCl, 1 mM MgCl2, 5 mM HEPES; pH 7.5). Following incubation in 1 mg/mL collagenase (Sigma-Aldrich, St. Louis, Mo., USA) for 30 min, stage 5 to 6 oocytes were singled out of the ovary and defolliculated using a platinum wire loop. Oocytes were stored and incubated at 18° C. in NDE medium (96 mM NaCl, 2 mM KCl, 1 mM MgCl2, 5 mM HEPES, 1.8 mM CaCl2; pH 7.5) that was supplemented with 100 U per mL-1 penicillin, 100 μg per mL-1 streptomycin and 2.5 mM pyruvate. Oocytes were injected with an aqueous solution of mRNA. A total of 2.5 ng of mRNA per oocyte was injected. Subunit ratio was 1:1:5 for αxβγ2 (x=1, 2, 3, 5) and 3:1:5 for α4/6β3γ2 and αβδ receptors. Injected oocytes were incubated for at least 36 h before electrophysiological recordings. Oocytes were placed on a nylon-grid in a bath of NDE medium. For current measurements, the oocytes were impaled with two microelectrodes (2-3MΩ), which were filled with 2 M KCl. The oocytes were constantly washed by a flow of 6 mL per min-1 NDE that could be switched to NDE containing GABA and/or drugs. Drugs were diluted into NDE from DMSO solutions resulting in a final concentration of 0.1% DMSO. […] To test for modulation of GABA induced currents by compounds, a GABA concentration that was titrated to trigger 3-5% of the respective maximum GABA-elicited current of the individual oocyte (EC3-5) was applied to the cell together with various concentrations of tested compounds. All recordings were performed at room temperature at a holding potential of −60 mV using a Warner OC-725C TEV (Warner Instrument, Hamden, Conn., USA) or a Dagan CA-1B Oocyte Clamp or a Dagan TEV-200A TEV (Dagan Corporation, Mineapolis, Minn., USA). Data were digitized using a Digidata 1322A or 1550 data acquisition system (Axon Instruments, Union City, Calif., USA), recorded using Clampex 10.5 software (Molecular Devices, Sunnyvale, Calif., USA), and analyzed using Clampfit 10.5 and GraphPad Prism 6.0 (La Jolla, Calif., USA) software. Concentration-response data were fitted using the Hill equation. Data are given as mean±SEM from at least three oocytes of two batches.
For selected test compounds full dose response curves were recorded in α1-6β3γ2 receptors. For selected compounds, dose response curves in additional receptor subtypes (α1, 4, 6β3δ, α6β1, 2γ2, α1-6β3) were also obtained. For a wider panel of compounds, a two point screening pharmacology was obtained at 1 and 10 μM compound concentrations.

[3] = Microsomal stability assay, human liver microsomes; assay type: in vitro ADME; settings: for % left after 1 hr. (HLM) / half-life at 10 μM / Half-life (min) (HLM): 10 μM test compound, 0.5 mg/mL protein, 37° C.; for stability in Human liver microsomes: Table 2; for half-life at 10 μM: human, liver microsomes, pH 7.4, read-out: Half-life (min) (HLM)
How it was run: as §1

[4] = 10 μM test compound, 0.5 mg/mL protein, 37° C.

T1 sequence (P30191 20-453): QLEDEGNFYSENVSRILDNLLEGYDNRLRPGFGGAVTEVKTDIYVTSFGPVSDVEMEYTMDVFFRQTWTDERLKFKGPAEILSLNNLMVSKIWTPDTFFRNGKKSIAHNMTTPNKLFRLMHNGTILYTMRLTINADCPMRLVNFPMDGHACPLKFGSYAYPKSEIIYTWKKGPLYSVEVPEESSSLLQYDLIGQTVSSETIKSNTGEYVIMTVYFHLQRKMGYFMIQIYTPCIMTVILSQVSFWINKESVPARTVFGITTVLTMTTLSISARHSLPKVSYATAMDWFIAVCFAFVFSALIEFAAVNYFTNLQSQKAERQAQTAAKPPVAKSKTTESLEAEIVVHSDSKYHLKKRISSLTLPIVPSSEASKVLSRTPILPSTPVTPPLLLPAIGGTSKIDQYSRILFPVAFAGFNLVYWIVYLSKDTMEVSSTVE
T1 sequence (P63079 26-473): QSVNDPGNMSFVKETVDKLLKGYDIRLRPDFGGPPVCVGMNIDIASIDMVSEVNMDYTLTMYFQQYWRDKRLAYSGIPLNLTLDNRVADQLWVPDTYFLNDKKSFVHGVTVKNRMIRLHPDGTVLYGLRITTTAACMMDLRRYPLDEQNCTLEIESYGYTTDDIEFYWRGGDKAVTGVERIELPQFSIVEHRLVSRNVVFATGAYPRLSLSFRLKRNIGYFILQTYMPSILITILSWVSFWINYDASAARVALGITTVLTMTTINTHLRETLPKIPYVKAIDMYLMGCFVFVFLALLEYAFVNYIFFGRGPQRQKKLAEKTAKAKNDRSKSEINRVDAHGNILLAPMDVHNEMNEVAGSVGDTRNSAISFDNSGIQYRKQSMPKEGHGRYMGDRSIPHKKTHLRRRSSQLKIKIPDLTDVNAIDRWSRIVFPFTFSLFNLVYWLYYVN
T1 sequence (P18508 39-466 partner): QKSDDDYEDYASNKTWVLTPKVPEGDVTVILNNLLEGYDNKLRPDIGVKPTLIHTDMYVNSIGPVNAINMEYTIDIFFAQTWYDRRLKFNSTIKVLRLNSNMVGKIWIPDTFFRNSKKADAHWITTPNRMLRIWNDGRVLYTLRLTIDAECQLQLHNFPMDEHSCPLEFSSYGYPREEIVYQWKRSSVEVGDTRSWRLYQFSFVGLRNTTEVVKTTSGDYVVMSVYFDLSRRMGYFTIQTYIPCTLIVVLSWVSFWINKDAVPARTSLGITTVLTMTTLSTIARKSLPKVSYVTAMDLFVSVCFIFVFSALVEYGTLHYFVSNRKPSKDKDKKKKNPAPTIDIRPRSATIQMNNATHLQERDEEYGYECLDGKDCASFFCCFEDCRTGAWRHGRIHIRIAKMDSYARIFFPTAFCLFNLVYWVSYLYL

| SMILES | % left after 1 hr. (MLM) [1, 4] | stability in Mouse liver microsomes [1] | half-life at 10 μM ([1]; mouse, liver microsomes, pH 7.4, 10 μM test compound, 0.5 mg/mL protein, 37° C., read-out: Half-life (min) (MLM)) | Emax [2] | selectivity for α6β3γ2 over other αxβ3γ2 receptors [2] | selectivity for α6β3γ2 over other αxβ3γ2 receptors ([2]; listed as compound 6) | % left after 1 hr. (HLM) [3] | stability in Human liver microsomes [3] | half-life at 10 μM [3] | Half-life (min) (MLM) [1, 4] | Half-life (min) (HLM) [3] | higher stability compared to non-Deuterated (DK-II-13-1) ([1]; mouse liver microsomes) | maximum efficacy compared to the lead compounds [2] |
| --- | --- | --- | --- | --- | --- | --- | --- | --- | --- | --- | --- | --- | --- |
| COc1ccc(-n2nc3c4ccc(OC)cc4[nH]cc-3c2=O)cc1 [Compound 6, 7-Methoxy-2-(4-methoxyphenyl)-2,5-dihydro-3H-pyrazolo[4,3-c]quinolin-3-one] | 80.35 ± 0.14% | 80% | 194 ± 11.4 min | 400 to 1000% | preferentially modulate GABA currents of α6β3γ2 receptors; also recorded: pronounced selectivity for the α6β3γ2 receptor | selectively modulates α6-containing receptors; also recorded: (efficacy-) selective for α6β3γ2 receptors | 86.1 ± 1.0% | 86% | 212 ± 25 min |  |  |  |  |
| [2H]C([2H])([2H])Oc1ccc(-n2nc3c4ccc(OC)cc4[nH]cc-3c2=O)cc1 [DK-I-56-1, 7-Methoxy-2-(4-methoxy-d3-phenyl)-2,5-dihydro-3H-pyrazolo[4,3-c]quinolin-3-one] | 92.8 ± 0.09% |  |  |  |  |  | 91.69 ± 0.09% |  |  | 628.8 ± 73 min | 520 ± 51 min |  |  |
| [2H]C([2H])([2H])Oc1ccc2c3nn(-c4ccc(OC)nc4)c(=O)c-3c[nH]c2c1 [DK-I-86-1, 7-Methoxy-d3-2-(6-methoxypyridin-3-yl)-2,5-dihydro-3H-pyrazolo[4,3-c]quinolin-3-one] | 91.3 ± 0.12% |  |  |  | preferentially modulates α6β3γ2 receptors; also recorded: selectivity was very good |  | 92.3 ± 0.13% |  |  | 550.6 ± 78 min | 752.30 ± 261 min | ~20% | lower |
| COc1cccc(-n2nc3c4cc(Cl)ccc4[nH]cc-3c2=O)c1 [LAU 159, 8-Chloro-2-(3-methoxyphenyl)-2,5-dihydro-3H-pyrazolo[4,3-c]quinolin-3-one] | 59.83 ± 0.23% | ~60% |  | ~400% | preferentially modulate GABA currents of α6β3γ2 receptors; also recorded: pronounced selectivity for the α6β3γ2 receptor; also recorded: (efficacy-) selective for α6β3γ2 receptors |  | 81.44 ± 0.16% | ~80% | 207 ± 15 min | 89.07 ± 5.22 min |  |  |  |
| COc1ccc(-n2nc3c4ccc(Br)cc4[nH]cc-3c2=O)cc1 [LAU 463, 7-Bromo-2-(4-methoxyphenyl)-2,5-dihydro-3H-pyrazolo[4,3-c]quinolin-3-one] | 69 ± 0.16% |  |  | 400 to 1000% | preferentially modulate GABA currents of α6β3γ2 receptors; also recorded: pronounced selectivity for the α6β3γ2 receptor; also recorded: (efficacy-) selective for α6β3γ2 receptors |  | 66.86 ± 0.13% |  | 104 ± 4 min | 113.17 ± 5.15 min |  |  |  |
